Experimental data taken from ChEMBL document CHEMBL2016572, “Second-generation histone deacetylase 6 inhibitors enhance the immunosuppressive effects of Foxp3+ T-regulatory cells” (J Med Chem, 2012).
Activity calls are given as the source filed them. No cut-off for these calls is given here.

Tests used:
Histone deacetylase 1 = Histone deacetylase 1 (Homo sapiens, UniProt Q13547); test: Inhibition of human recombinant HDAC1 using RHKKAc peptide as substrate incubated for 5 to mins prior to substrate addition measured after 2 hrs
[1] = target: T1, Protein deacetylase HDAC6 (Homo sapiens, UniProt Q9UBN7); test: Inhibition of human recombinant HDAC6 using RHKKAc peptide as substrate incubated for 5 to mins prior to substrate addition measured after 2 hrs
T1 sequence (Q9UBN7 whole entry): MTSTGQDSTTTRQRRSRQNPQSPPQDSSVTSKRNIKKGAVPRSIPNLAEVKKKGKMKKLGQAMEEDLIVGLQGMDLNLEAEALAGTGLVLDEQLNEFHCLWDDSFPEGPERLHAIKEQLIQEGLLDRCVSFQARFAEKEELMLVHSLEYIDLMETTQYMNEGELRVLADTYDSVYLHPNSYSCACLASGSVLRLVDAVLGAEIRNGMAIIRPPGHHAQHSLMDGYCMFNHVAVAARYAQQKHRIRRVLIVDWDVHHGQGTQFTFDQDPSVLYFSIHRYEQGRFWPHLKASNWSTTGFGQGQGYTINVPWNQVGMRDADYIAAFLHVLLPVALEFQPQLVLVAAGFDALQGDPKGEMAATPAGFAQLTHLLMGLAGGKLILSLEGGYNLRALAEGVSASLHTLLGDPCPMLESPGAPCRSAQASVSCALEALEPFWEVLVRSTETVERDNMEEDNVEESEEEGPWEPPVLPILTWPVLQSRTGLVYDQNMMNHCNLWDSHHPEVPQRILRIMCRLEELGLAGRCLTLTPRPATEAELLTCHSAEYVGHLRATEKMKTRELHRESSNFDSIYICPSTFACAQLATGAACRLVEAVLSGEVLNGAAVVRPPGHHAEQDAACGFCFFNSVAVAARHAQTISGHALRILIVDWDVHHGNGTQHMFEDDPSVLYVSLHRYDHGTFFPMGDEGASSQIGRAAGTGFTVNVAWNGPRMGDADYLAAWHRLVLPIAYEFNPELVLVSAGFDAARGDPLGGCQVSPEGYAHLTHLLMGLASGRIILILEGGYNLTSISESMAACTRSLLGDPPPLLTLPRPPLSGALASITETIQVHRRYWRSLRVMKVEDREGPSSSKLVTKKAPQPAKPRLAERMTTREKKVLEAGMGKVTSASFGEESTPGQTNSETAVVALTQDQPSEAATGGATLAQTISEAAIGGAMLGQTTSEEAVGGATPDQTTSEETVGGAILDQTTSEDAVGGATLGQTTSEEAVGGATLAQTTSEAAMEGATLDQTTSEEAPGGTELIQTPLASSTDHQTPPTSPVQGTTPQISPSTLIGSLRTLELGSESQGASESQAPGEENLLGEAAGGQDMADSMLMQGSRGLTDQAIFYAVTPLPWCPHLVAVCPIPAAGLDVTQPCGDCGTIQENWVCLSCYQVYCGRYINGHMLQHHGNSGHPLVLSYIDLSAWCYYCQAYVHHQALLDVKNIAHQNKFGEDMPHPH

Homo sapiens = organism: Homo sapiens; test: Selectivity ratio of IC50 for human recombinant HDAC1 to IC50 for human recombinant HDAC6
T-cell [2] = test: Immunosuppressive activity against C57BL/6 mouse CFSE-labelled effector T cells assessed as inhibition of T regulatory cells-mediated proliferation at 1 uM after 3 to 4 days by flow cytometry relative to control; assay type: functional, cell-based
[3] = Immunosuppressive activity against C57BL/6 mouse CFSE-labelled effector T cells assessed as Treg suppression of Teffector proliferation AUC at 1 uM after 3 to 4 days by flow cytometry relative to control; assay type: functional, T-cell
T-cell [4] = test: Immunosuppressive activity against C57BL/6 mouse CFSE-labelled effector T cells assessed as inhibition of T regulatory cells-mediated proliferation at 0.25 uM after 3 to 4 days by flow cytometry relative to control; assay type: functional, cell-based
Mus musculus = test: Immunosuppressive activity against HDAC6 deficient CD4+CD25- CFSE-labelled effector T cells xenografted in RAG-/- mouse assessed as inhibition of FoxP3+,CD4+CD25+ T regulatory cells-mediated proliferation at 1 mg/kg, ip administered qd for 7 days measured on day 8 by flow cytometry; assay type: functional, organism-based; parameters: dose 1 mg/kg; conditions: T-cell
[5] = Immunosuppressive activity against C57BL/6 mouse CFSE-labelled effector T cells assessed as Treg suppression of Teffector proliferation AUC at 0.25 uM after 3 to 4 days by flow cytometry relative to control; assay type: functional, T-cell
[6] = Immunosuppressive activity against C57BL/6 mouse CFSE-labelled effector T cells assessed as Treg suppression of Teffector proliferation AUC at […] after 3 to 4 days by flow cytometry relative to control; assay type: functional, T-cell
[7] = Immunosuppressive activity against C57BL/6 mouse CFSE-labelled effector T cells assessed as Treg suppression of Teffector proliferation AUC at 0.5 uM after 3 to 4 days by flow cytometry relative to control; assay type: functional, T-cell
[8] = Immunosuppressive activity against C57BL/6 mouse CFSE-labelled effector T cells assessed as inhibition of T regulatory cell-mediated proliferation at Treg:Teff ratio of 1:4 at 1 uM after 3 to 4 days by flow cytometry (reference value: 74.2%); assay type: functional; conditions: C57BL/6, T-cell
[9] = Immunosuppressive activity against C57BL/6 mouse CFSE-labelled effector T cells assessed as inhibition of T regulatory cells-mediated proliferation at Treg:Teff ratio of 1:1 at 1 uM after 3 to 4 days by flow cytometry (reference value: 42.2%); assay type: functional; conditions: C57BL/6, T-cell
[10] = Immunosuppressive activity against C57BL/6 mouse CFSE-labelled effector T cells assessed as inhibition of T regulatory cells-mediated proliferation at Treg:Teff ratio of 1:2 at 1 uM after 3 to 4 days by flow cytometry (reference value: 64.8%); assay type: functional; conditions: C57BL/6, T-cell
[11] = Immunosuppressive activity against C57BL/6 mouse CFSE-labelled effector T cells assessed as inhibition of T regulatory cells-mediated proliferation at Treg:Teff ratio of 1:16 at 1 uM after 3 to 4 days by flow cytometry (reference value: 86.9%); assay type: functional; conditions: C57BL/6, T-cell
[12] = Immunosuppressive activity against C57BL/6 mouse CFSE-labelled effector T cells assessed as inhibition of T regulatory cell-mediated proliferation at Treg:Teff ratio of 1:8 at 0.5 uM after 3 to 4 days by flow cytometry (reference value: […]); assay type: functional; conditions: C57BL/6, T-cell
[13] = Immunosuppressive activity against C57BL/6 mouse CFSE-labelled effector T cells assessed as inhibition of T regulatory cell-mediated proliferation at Treg:Teff ratio of 1:4 at 0.5 uM after 3 to 4 days by flow cytometry (reference value: 74.2%); assay type: functional; conditions: C57BL/6, T-cell
T-cell [14] = test: Immunosuppressive activity against C57BL/6 mouse CFSE-labelled effector T cells assessed as inhibition of T regulatory cell-mediated cell division at Treg:Teff ratio of 1:1 at 0.5 uM after 3 to 4 days by flow cytometry (reference value: 42.2%); assay type: functional; conditions: C57BL/6, T-cell
T-cell [15] = test: Immunosuppressive activity against C57BL/6 mouse CFSE-labelled effector T cells assessed as inhibition of T regulatory cell-mediated cell division at Treg:Teff ratio of 1:2 at 0.5 uM after 3 to 4 days by flow cytometry (reference value: 64.8%); assay type: functional; conditions: C57BL/6, T-cell
[16] = Immunosuppressive activity against C57BL/6 mouse CFSE-labelled effector T cells assessed as inhibition of T regulatory cell-mediated proliferation at Treg:Teff ratio of 1:16 at 0.5 uM after 3 to 4 days by flow cytometry (reference value: 86.9%); assay type: functional; conditions: C57BL/6, T-cell

Sequence of Histone deacetylase 1 (Q13547 whole entry): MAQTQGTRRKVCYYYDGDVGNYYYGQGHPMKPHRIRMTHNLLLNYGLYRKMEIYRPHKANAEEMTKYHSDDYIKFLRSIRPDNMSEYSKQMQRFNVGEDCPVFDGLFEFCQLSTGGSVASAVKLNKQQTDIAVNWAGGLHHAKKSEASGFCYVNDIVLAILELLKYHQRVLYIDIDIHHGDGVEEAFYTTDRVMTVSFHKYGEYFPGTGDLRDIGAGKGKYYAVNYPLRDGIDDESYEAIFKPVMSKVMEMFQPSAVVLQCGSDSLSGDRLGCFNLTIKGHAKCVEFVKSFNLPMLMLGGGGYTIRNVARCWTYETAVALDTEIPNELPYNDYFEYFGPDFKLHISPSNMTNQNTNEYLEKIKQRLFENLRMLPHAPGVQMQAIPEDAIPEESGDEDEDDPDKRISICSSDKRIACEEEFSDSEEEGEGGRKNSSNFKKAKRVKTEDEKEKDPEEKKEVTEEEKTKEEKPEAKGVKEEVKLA

SMILES | IC50 (Histone deacetylase 1) | IC50 [1] | Ratio IC50 (Homo sapiens) | also measured
NC(=O)CCCN1CCc2c(c3ccccc3n2Cc2ccc(C(=O)NO)cc2)C1 | 7450 nM | 4.06 nM | 1830 | 
NC(=O)CCN1CCc2c(c3ccccc3n2Cc2ccc(C(=O)NO)cc2)C1 | 1610 nM | 0.459 nM | 3510 | 
COc1ccc(CN2CCc3c(c4ccccc4n3Cc3ccc(C(=O)NO)cc3)C2)cc1 | 4640 nM | 3.05 nM | 1520 | 
CN1CCc2c(n(Cc3ccc(C(=O)NO)cc3)c3ccccc23)C1 |  | 1.4 nM | 3700 | inhibition (T-cell [2]): Active; Ratio [3]: 1.63
CN1CCc2c(c3cc(Br)ccc3n2Cc2ccc(C(=O)NO)cc2)C1 | 427 nM | 0.704 nM | 606 | inhibition (T-cell [4]): Active; inhibition (Mus musculus): Active; Ratio [5]: 1.87
Cc1ccc2c(c1)c1c(n2Cc2ccc(C(=O)NO)cc2)CCN(C)C1 | 2070 nM | 4.9 nM | 422 | 
Cc1ccc2c3c(n(Cc4ccc(C(=O)NO)cc4)c2c1)CCN(C)C3 | 4050 nM | 11.5 nM | 352 | 
CN1CCc2c(c3cc(C(C)(C)C)ccc3n2Cc2ccc(C(=O)NO)cc2)C1 | 14100 nM | 22.5 nM | 626 | 
NC(=O)CN1CCc2c(c3ccccc3n2Cc2ccc(C(=O)NO)cc2)C1 | 3980 nM | 0.799 nM | 4980 | Ratio [6]: 1.69
CCN1CCc2c(c3ccccc3n2Cc2ccc(C(=O)NO)cc2)C1 | 10200 nM | 2.99 nM | 3410 | 
COc1cccc(CN2CCc3c(c4ccccc4n3Cc3ccc(C(=O)NO)cc3)C2)c1 | 5190 nM | 2.96 nM | 1750 | Ratio [7]: 1.9
CN1CCc2c(c3cc(Cl)ccc3n2Cc2ccc(C(=O)NO)cc2)C1 | 1020 nM | 1.02 nM | 1000 | 
C=CCN1CCc2c(c3ccccc3n2Cc2ccc(C(=O)NO)cc2)C1 | 5820 nM | 0.972 nM | 5990 | Ratio [7]: 1.65
O=C(NO)c1ccc(Cn2c3c(c4ccccc42)CN(Cc2ccccc2)CC3)cc1 | 10300 nM | 1.44 nM | 7150 | 
Cc1cccc2c3c(n(Cc4ccc(C(=O)NO)cc4)c12)CCN(C)C3 | 22100 nM | 34.7 nM | 636 | 
O=C(NO)c1ccc(Cn2c3c(c4ccccc42)CCN(Cc2ccccc2)C3)cc1 | 4320 nM | 0.872 nM | 4950 | 
Cc1cc(C)c2c3c(n(Cc4ccc(C(=O)NO)cc4)c2c1)CCN(C)C3 | 10300 nM | 38.4 nM | 268 | 
O=C(NO)c1ccc(Cn2c3c(c4ccccc42)CCNC3)cc1 | 9700 nM | 2.49 nM | 3900 | 
COc1ccc2c(c1)c1c(n2Cc2ccc(C(=O)NO)cc2)CCN(C)C1 | 1880 nM | 3.06 nM | 614 | 
CC(C)(C)OC(=O)N1CCc2c(c3ccccc3n2Cc2ccc(C(=O)NO)cc2)C1 | 8620 nM | 2.25 nM | 3830 | 
O=C(NO)c1ccc(Cn2c3c(c4ccccc42)CNCC3)cc1 | 16400 nM | 6.56 nM | 2500 | Ratio [6]: 1.76
CC(C)N1CCc2c(c3ccccc3n2Cc2ccc(C(=O)NO)cc2)C1 | 15700 nM | 8.96 nM | 1750 | 
CN1CCc2c(c3ccccc3n2Cc2ccc(C(=O)NO)cc2)C1 [TUBASTATIN A] |  |  |  | inhibition at 1 µM [8]: 58.7%; inhibition at 1 µM [9]: 37.8%; inhibition at 1 µM [10]: 44.4%; inhibition at 1 µM [11]: 75.4%
O=C(NO)c1ccc(Cn2c3c(c4ccccc42)CN(Cc2ccncc2)CC3)cc1 | 2740 nM | 0.582 nM | 4710 | inhibition at 0.5 µM [12]: 69.7%; inhibition at 0.5 µM [13]: 62.3%; inhibition at 0.5 µM (T-cell [14]): 37.8%; inhibition at 0.5 µM (T-cell [15]): 51.6%; inhibition at 0.5 µM [16]: 72.8%; inhibition (Mus musculus): Active; Ratio [7]: 2.13
